Columns and labels:
[1] = system: human HL-60 leukemic cells; test: In vitro growth inhibition by QA salts in cultured HL-60 cells, MTT, 72 hr (FIG. 8); type: cell-based; settings: HL-60 cells
Protocol: QA was purchased from Sigma (>99%). QA salts were synthesized by neutralization with the appropriate base, i.e., NH4OH, NaOH, Ca(OH)2, Zn(OH)2, LiOH, KOH, lysine or histidine. Serial dilutions of test compounds were added to human HL-60 leukemic cells (0.05×10^6 cells/ml) in 96-well, flat bottomed microtiter plates to give final concentrations in the cultures up to 3000 μg/ml. The plates were incubated for 72 hr at 37 C, pulsed with 20 μl MTT (5 mg/ml) for 3 hr, and the color estimated spectrophotometrically at 540 nm as described previously. (Schweitzer, C M et al. Spectrophotometric determination of clonogenic capacity of leukemic cells in semisolid microtiter culture systems. Experimental Hematology 21: 573-578, 1993). IC50 values were calculated and compared based on the live/dead ratio of cells.

[2] = system: HL-60 human leukemic cells; test: In vitro cytotoxicity in HL-60 cells, MTT assay (Table 2); type: cell-based
Protocol: In Table 2, the in vitro cytotoxicity of the various components were determined in HL-60 human leukemic cells using the MTT assay and calculation of IC50 values as described in detail elsewhere. Quinic acid ester content was determined by the Bartos method (Bartos, 1980). […] The quinic acid traveling between Rf=0.2-0.3 was eluted from the TLC plates with 1% aqueous ammonia and the relative quantity estimated by absorption at 200 nm as ± being less than 0.050 and “++++” denoting the highest amount detected, with a decrease in the number of “+” signs corresponding to a decrease in the amount of QA detected.

[3] = system: HL-60 W6899 cells; test: HL-60 bioassay, microculture 5 days, clonogenicity estimated by MTT assay (Table 1); type: cell-based, human; settings: parameters are approximations
Protocol: An assay of biological activity of C-MED-100®'s active ingredient is prepared as follows: HL-60 […] cells are exposed in microculture at 5000 cells per well (96-well plates) for 5 days at 37 ? C. in a CO2 incubator. After incubation, the cells are washed with saline and clonogenicity estimated by MTT assay.

[4] = Acid and base hydrolysis of QAL and QA measured by Bartos reaction (Table 3); type: physicochemical; settings: 500 μg/test
Description: To further characterize the QA analogs as the active ingredients in C-MED-100® in vitro, we determined the influence of base hydrolysis on the chemistry and biological activity of C-MED-100®. QAL is in fact a cyclic ester of QA, and as such it is an example representing the general class of QA esters. Elution from silica gel with 1% ammonia were the mandated chemical conditions necessary to remove the QA analog (i.e., active ingredient) from silica gel, which in turn favored the base hydrolysis of QA esters such as QAL to QA. If so, then identification of QA after base hydrolysis from the elution of silica gel, would then be consistent with the natural occurrence in C-MED-100® of a QA ester at Rf=0.2-0.3. […] It is quite clear that either strong acid or base treatment converted QAL to QA, and left only QA remaining, thus supporting the fact that the isolation of QA from C-MED-100® after base elution from silica gel was likely to have been originally present as a QA ester.

[5] = system: IκBα; test: Western blotting of IκBα and phosphorylated IκBα in LPS-stimulated 70Z/3 cells; type: cell-based, mouse; settings: QA 2 mg/ml or PDTC 100 μM
Protocol: FIGS. 5C and 5D illustrate 70Z/3 cells (5×10^6) that were pre-treated with QA (2 mg/ml) or with PDTC (100 μM) as a positive control for two hours and thereafter stimulated with LPS (25 μg/ml) for the indicated time. Cytoplasmic extracts equalized for protein concentration were analyzed by western blotting using IκBα-specific antibodies. One representative experiment out of three (FIG. 5C) and one representative experiment out of two (FIG. 5D) are presented.
Preparation of cell extracts: The 70Z/3 cells were pretreated with QA (1 or 2 mg/ml) or with PDTC for 2 hours before they were stimulated with LPS for various time points. Whole cell extracts from the 70Z/3 cells (1×10^6) were prepared for analysis of the NF-κB signaling pathway. The cells were washed twice in PBS, resuspended in lysis buffer (75 mM Tris-HCl (pH 8.0), 100 mM NaCl, 5 mM KCl, 3 mM MgCl2, 2% NP-40, 1 mM PMSF and a protease inhibitor cocktail) (Roche Diagnostics Scandinavia AB) and incubated on ice for 10 min. The cell debris was pelleted and the supernatants were stored at −70° C. until Western Blot was performed.
Western blotting: Cellular extracts from 70Z/3 cells were separated on a 10% SDS polyacrylamide gel and the proteins were transferred to a nylon membrane. After blocking overnight in 5% dry fat-free milk in TBST, the membrane was incubated for 2 hrs with primary antibodies specific either to IκBα or to phosphorylated IκBα (both from Cell Signaling Technology Inc, Beverly, Mass.). The membranes were thereafter washed three times in TBST, and incubated with HRP-conjugated goat anti-rabbit antibodies (Amersham Pharmacia). The membranes were washed three times and chemoluminescence was detected using the ECL-reagent (Amersham Pharmacia) and x-ray film (CEA AB, Strängnäs, Sweden).

## O=C([O-])C1(O)CC(O)C(O)[C@H](O)C1.[Na+] (some centres unmarked) [Quinic acid (QA) sodium salt]
[1]
  in vitro cytotoxicity compared to C-MED-100 (FIG. 8): in vitro cytotoxicity comparable to that of C-MED-100®
[2]; no base hydrolysis
  HL-60 MTT IC50: 1500 µg/mL

## O=C1O[C@@H]2C[C@@]1(O)C[C@@H](O)[C@H]2O [Quinic acid lactone, quinic acid lactone]
[2]; no base hydrolysis, listed as QAL #2 batch syn.
  HL-60 MTT IC50: >2300 µg/mL
[2]; sample treated +2 M NaOH, 2 hr
  HL-60 MTT IC50: 1600 µg/mL
[3]; after 1% aqueous ammonia
  Bioassay after 1% aqueous ammonia IC50 HL-60 cells: >3000 µg/mL
[3]
  Bioassay efficacy using IC50 in HL-60 cells: 80 µg/mL
[4]; 1M NaOH
  % Degraded (Bartos Reaction A490 nm): 74.1%
[4]; 1N HCl
  % Degraded (Bartos Reaction A490 nm): 58.2%

## S=C(S)N1CCCC1 [PDTC, pyrollidine dithiocarbamate, reference compound]
[5]
  phosphorylation of IκBα: potently inhibited
[5]; 2 h pretreatment
  LPS-induced breakdown of IκBα: inhibits both the breakdown of IκBα and its resynthesis

## O=C1O[C@@H]2C[C@@]1(O)C[C@@H](O)[C@H]2O [QAL #1 batch syn., quinic acid lactone]
[2]; no base hydrolysis
  HL-60 MTT IC50: 1200 µg/mL

From patent publication US7947312B2, “Method of preparation and composition of a water soluble extract of the bioactive component of the plant species Uncaria for enhancing immune, anti-inflammatory, anti-tumor and DNA repair processes of warm blooded animals” (priority 2002, dated 2011)
